Measurements taken from ChEMBL document CHEMBL1145740, “Novel alpha-amino-acid phenolic ester derivatives with intravenous anaesthetic activity” (Bioorg Med Chem Lett, 2003).

Key:
[1] = system: Mus musculus; assay: Intravenous hypnotic dose that caused a loss of righting reflex for a minimum period of 30s in 50% of treated mice determined by probit analysis.; assay type: functional
[2] = molecular target: GABA-A receptor; anion channel; assay: In vitro inhibition of [35S]TBPS binding to GABA-A receptor of rat whole brain membranes; assay type: cell membranes

Row | SMILES | HD50 [1] [µM/kg] | IC50 [2] [µM]
1 | COCCN(CCOC)C(CCS(C)(=O)=O)C(=O)Oc1c(OC)cccc1OC (stereo not given) | >106 | 
2 | COCCN(CCOC)C(CCS(C)(=O)=O)C(=O)Oc1c(OC)cc(C)cc1OC (stereo not given) | 77 | 
3 | COc1cc(C)cc(OC)c1OC(=O)C(CCSC)N1CCOCC1 (stereo not given) | 34.8 | 
4 | COc1cc(C)cc(OC)c1OC(=O)C(CC[S+](C)[O-])N1CCCC1 (stereo not given) | 73 | 
5 | COc1cccc(OC)c1OC(=O)C(CC(=O)N1CCCC1)N1CCCC1 (stereo not given) | 102 | 
6 | COc1cc(C)cc(OC)c1OC(=O)C(CCSC)N1CCCC1 (stereo not given) | 31.4 | 2.7
7 | COc1cccc(OC)c1OC(=O)C(CCSC)N1CCCCCC1 (stereo not given) | 18.2 | 9.7
8 | COC(=O)CC(C(=O)Oc1c(OC)cccc1OC)N1CCOCC1 (stereo not given) | 79 | 
9 | COc1cccc(OC)c1OC(=O)C(CC(=O)N1CCOCC1)N1CCOCC1 (stereo not given) | >225 | 
10 | CCN(CC)C(=O)CC(C(=O)Oc1c(OC)cc(C)cc1OC)N1CCOCC1 (stereo not given) | 38 | 
11 | COc1cccc(OC)c1OC(=O)C(CCSC)N1CCCCC1 (stereo not given) | <25 | 4
12 | COc1cc(C)cc(OC)c1OC(=O)C(CC(=O)N1CCCC1)N1CCCCCC1 (stereo not given) | 67 | 
13 | COC(=O)CC(C(=O)Oc1c(OC)cc(C)cc1OC)N1CCOCC1 (stereo not given) | 46 | 
14 | COCCN(CCOC)C(CCSC)C(=O)Oc1c(OC)cc(C)cc1OC (stereo not given) | 22.6 | 6.9
15 | CC[C@H](C(=O)Oc1c(OC)cc(C)cc1OC)N(CCOC)CCOC [ORG-24447] | 21.7 | 
16 | COc1cc(C)cc(OC)c1OC(=O)C(CC[S+](C)[O-])N1CCOCC1 (stereo not given) | 299 | 
17 | COc1cccc(OC)c1OC(=O)C(CCSC)N1CCCC1 (stereo not given) | 40 | 
18 | CC(C)c1cccc(C(C)C)c1O [PROPOFOL] | 68 | 
19 | COc1cc(C)cc(OC)c1OC(=O)C(CC(=O)N1CCCC1)N1CCCC1 (stereo not given) | 81 | 

Row | SMILES | HD50 [1] [µM/kg] | IC50 [2] [µM]
20 | COc1cc(C)cc(OC)c1OC(=O)C(CC(=O)N1CCOCC1)N1CCOCC1 (stereo not given) | >218 | 
21 | COCCN(CCOC)C(CC(=O)OC)C(=O)Oc1c(OC)cc(C)cc1OC (stereo not given) | 48 | 
22 | COc1cc(C)cc(OC)c1OC(=O)C(CCS(C)(=O)=O)N1C=CCCC1 (stereo not given) | 39.3 | 6.2
23 | COC(=O)CC(C(=O)Oc1c(OC)cccc1OC)N1CCCCCC1 (stereo not given) | 22.9 | 4.2
24 | CCN(CC)C(=O)CC(C(=O)Oc1c(OC)cccc1OC)N1CCOCC1 (stereo not given) | 117 | 
25 | COC(=O)CC(C(=O)Oc1c(OC)cc(C)cc1OC)N1CCCCC1 (stereo not given) | 48 | 14.7
26 | COc1cc(C)cc(OC)c1OC(=O)C(CCS(C)(=O)=O)N1CCOCC1 (stereo not given) | 108 | 
27 | COc1cccc(OC)c1OC(=O)C(CCSC)N1CCOCC1 (stereo not given) | 26.1 | 
28 | COc1cccc(OC)c1OC(=O)C(CC(=O)N1CCCCC1)N1CCCCC1 (stereo not given) | 39 | 
29 | COC(=O)CC(C(=O)Oc1c(OC)cccc1OC)N1CCCCC1 (stereo not given) | 26.4 | 11.7
30 | COCCN(CCOC)C(CC(=O)OC)C(=O)Oc1c(OC)cccc1OC (stereo not given) | 48 | 
31 | COc1cccc(OC)c1OC(=O)C(CCS(C)(=O)=O)N1CCOCC1 (stereo not given) | 99 | 
32 | COc1cccc(OC)c1OC(=O)C(CC(=O)N1CCCC1)N1CCCCCC1 (stereo not given) | 34 | 
33 | COC(=O)CC(C(=O)Oc1c(OC)cccc1OC)N1CCCC1 (stereo not given) | 77 | 
34 | COc1cccc(OC)c1OC(=O)C(CCSC)N1CCCCCCC1 (stereo not given) | 35 | 
35 | COC(=O)CC(C(=O)Oc1c(OC)cc(C)cc1OC)N1CCCC1 (stereo not given) | 52 | 
36 | COC(=O)CC(C(=O)Oc1c(OC)cc(C)cc1OC)N1CCCCCC1 (stereo not given) | 26 | 
37 | COc1cc(C)cc(OC)c1OC(=O)C(CC(=O)N1CCCCC1)N1CCCCC1 (stereo not given) | 37.5 | 
